These results are taken from patent publication US8691790B2, “Therapy of neurological inflammatory diseases with (5'-deoxy-5'-adenosyl) cobamamide, recombinant human growth hormone, interleukins IL-1, IL-6, IL-11, epidermal growth factor, and physiotherapy” (priority 2009, dated 2014).

Entries after “also recorded” stand apart in the source; their conditions may differ.

In assay [1] the test system is clinically definite MS patient in the Secondary Progressive stage of MS (SPMS). The assay can be described thus: Scoping experiment in therapy with daily AdoCbl injections in one MS patient. Type of assay: in vivo, human. An excerpt:
The current patent, by Boucher, teaches the effective use of AdoCbl, by itself, for therapy of MS and other neurological inflammatory diseases and neurodegenerative diseases. […] Approximately 10 years ago the MS Patient was deemed to be in the Secondary Progressive Multiple Sclerosis (SPMS) stage due to the unremitting accumulation of disability. The MS Patient had loss of memory, cognitive impairment, loss of balance, fatigue, nocturia, not able to lift right foot from the floor, not able to raise right hand, not able to write with the right hand or to use a computer keyboard with the right hand, not able to grip with the right hand, not able to eat with a fork in the right hand, had poor heat tolerance, and was marginally ambulatory with a rollator. The MS patient was more affected on the right side than on the left, which prevented the use of a manual wheelchair. A scoping experiment in therapy with daily injections of 1000 mcg of AdoCbl was initiated. […] After three days, the injection size was increased to 5000 mcg of AdoCbl daily. The MS Patient had been making daily injections of 20 mg Copaxone, but these were stopped for about two months when the scoping experiment with daily injections of AdoCbl was initiated. […] The current patent, by Boucher, teaches that AdoCbl, by itself, provides effective therapy of MS and other inflammatory diseases, that AdoCbl facilitates remyelination, that AdoCbl stops secondary progression of disability in MS and allows extensive recovery from the symptoms of MS. The scoping experiment in therapy with AdoCbl was intended as a test of the etiological hypothesis that the enzyme ATP: Cob (I) alamin adenosyltransferase (ATR) in the CSF was a target of the immune system, which was a major factor in the development of MS. The results of the scoping experiment in therapy strongly support the proposed etiological hypothesis. There are missing details, potentially. Therefore, this patent is not to be restricted to addressing the proposed etiological hypothesis, as other etiological processes are possible.
Prior art in the patent literature and in the published medical literature for therapy of MS has no example of therapy that stops and reverses the progressive accumulation of disability.
A scoping experiment in therapy by parenteral injection of at a dose of between 1 μg and 2.5 g daily AdoCbl into a human subject with clinically definite MS in the secondary progressive stage was conducted.

Assay [2] concerns Chronic Progressive forms of MS. Particulars: human trials reported in the literature; cited from earlier work.
Assay [3] deals with Relapsing Remitting Multiple Sclerosis (RRMS). The settings on record: human trials reported in the literature; cited from earlier work.

Turning to `C/C1=C2/[N-]C([C@H](CC(N)=O)[C@@]2(C)CCC(=O)NC[C@@H](C)OP(=O)([O-])O[C@H]2[C@@H](O)[C@@H](n3cnc4cc(C)c(C)cc43)O[C@@H]2CO)[C@]2(C)N=C(/C(C)=C3N=C(/C=C4N=C1[C@@H](CCC(N)=O)C\4(C)C)[C@@H](CCC(N)=O)[C@]\3(C)CC(N)=O)[C@@H](CCC(N)=O)[C@]2(C)CC(N)=O.[CH2-][C@H]1O[C@@H](n2cnc3c(N)ncnc32)[C@@H](O)[C@@H]1O.[Co+3]` [AdoCbl, (5′-deoxy-5′-adenosyl) cobamide], in assay [1] (5000 mcg of AdoCbl daily, patient was marginally ambulatory with a rollator before), the ambulation result is “ambulatory and does not need a wheelchair”. The “effect on progression / accumulation of disability in MS” value in assay [1] (AdoCbl by itself, single SPMS patient, 98% pure AdoCbl, for more than one year) was “dramatic therapeutic effect; also recorded: stops the accumulation of disability and substantially reverses disability; also recorded: stopped and reversed chronic progression of MS; also recorded: effectiveness in stopping and even reversing the progressive accumulation of neurological damage”. The “ability to raise right hand” value in assay [1] (daily injections of 1000 mcg of AdoCbl, after three days, single SPMS patient) is “able to raise their right hand above their head”. The “recovery of lost abilities and MS symptoms” value in assay [1] (injection size increased to 5000 mcg of AdoCbl daily after three days, Copaxone stopped for about two months, single SPMS patient) was “has recovered memory, cognition, normal balance, does not experience fatigue, no longer has nocturia, has recovered some ability with the right leg, is able to write with the right hand, use a computer keyboard with that right hand, and eat with a fork in the right hand”. For the same molecule, the “recovery of abilities and symptoms (summary statement)” value in assay [1] (parenteral injection, dose of between 1 μg and 2.5 g daily AdoCbl, human subject, secondary progressive MS) is “regained physical abilities lost years before, regained memory and cognitive abilities, and had complete recovery from many common symptoms of MS such as fatigue and poor balance”. The “need for continued AdoCbl injections” value in assay [1] (single SPMS patient) is listed as “necessary to prevent relapse to the common symptoms of MS”.
On to Copolymer-1, for which the “benefit in chronic progressive MS” value in assay [2] is recorded as “no effective benefit”. Besides, the “effect on rate of relapse” value in assay [3] was “effective in lowering the rate of relapse”.
